Experimental data reported in PMC7215373, “Design, Synthesis, and Anticancer Evaluation of Novel Indole Derivatives of Ursolic Acid as Potential Topoisomerase II Inhibitors” (International Journal of Molecular Sciences, 2020).

Columns and labels:
Human Topoisomerase IIα = biological target: T1, Human Topoisomerase IIα (Homo sapiens, UniProt P11388); assay: Topoisomerase II relaxation assay (supercoiled pBR322); type: biochemical; conditions: for inhibition at 20 µM: 20 μM compound, read-out: Topo II Inhibition (%) 20 μM; for inhibition at 100 µM: 100 μM compound, read-out: Topo II Inhibition (%) 100 μM
T1 construct: purchased USB, Affymetrix, Waltham, MA, USA
Method: The effect of the tested compounds on Topo I and II activities were evaluated by Topo I/II relaxation assays. The reaction products, relaxed DNA could be distinguished from supercoiled DNA by gel electrophoresis and visualized using gel imaging system. Human Topoisomerase IIα activity was detected by measuring the relaxation of supercoiled pBR322 plasmid DNA [22]. […] For inhibition studies, the compounds were pre-incubated with human Topo IIα and DNA for 15 min. Compounds were used at the appropriate concentrations by dissolving in 2% (v/v) DMSO. DMSO didn't show detrimental effect on the enzyme activity at concentration up to 2% (v/v). Reaction mixture was incubated at 37 °C for 30 min and stopped by the addition of 7 mM EDTA. Reaction product was mixed with DNA loading dye and electrophoresed on 1% TAE-Agarose. The gel was stained with ethidium bromide (0.5 μg/mL) for 30 min, destained twice in 1× TAE buffer, and then visualized using a BIO-RAD Gel Doc XR+ System. Etoposide (VP-16) was co-assayed as a positive control.

HepG2 cells = assay: MTT cytotoxicity assay, HepG2; type: cell-based, human; conditions: 48 h exposure
Method: (§1) The in vitro cytotoxic activities of synthesized compounds were evaluated against two human hepatocarcinoma cell lines (SMMC-7721 and HepG2) and the human normal hepatocyte cell line (LO2) via MTT assay. All tested compounds were dissolved in DMSO and the stock solutions were diluted by DMEM medium before treatment of the cultured cells. […] Cell lines were obtained from American Tissue Culture Collection (ATCC). Briefly, different tumor cells were grown in DMEM medium supplemented with 10% fetal bovine serum, penicillin (100 U/mL), and streptomycin (50 μg/mL). Cells were harvested at log phase of growth and seeded in 96-well plates (100 μL/well at a density of 2 × 10^5 cells/mL). After 24 h incubation at 37 °C and 5% CO2 to allow cell attachment, cultures were exposed to various concentrations of the isolated compounds for 48 h. Finally, MTT solution (2.5 mg/mL in PBS) was added (40 μL/well). Plates were further incubated for 4 h at 37 °C, and the formazan crystals formed were dissolved by adding 150 μL/well of DMSO. Absorption at 570 nm was measured with an ELISA plate reader. […] Doxorubicin, camptothecin, and etoposide (VP-16) were co-assayed as positive controls.

SMMC-7721 cells = assay: MTT cytotoxicity assay, SMMC-7721; type: cell-based, human; conditions: 48 h exposure
Method: as §1

DNA topoisomerase I = biological target: T2, DNA topoisomerase I (Bos taurus, UniProt F1MN93); assay: Topoisomerase I relaxation assay (supercoiled pBR322); type: biochemical; conditions: for inhibition at 20 µM: 20 μM compound, read-out: Topo I Inhibition (%) 20 μM; for inhibition at 100 µM: 100 μM compound, read-out: Topo I Inhibition (%) 100 μM
T2 construct: purchased TaKaRa, Kyoto, Japan
T2 sequence (F1MN93 1-767): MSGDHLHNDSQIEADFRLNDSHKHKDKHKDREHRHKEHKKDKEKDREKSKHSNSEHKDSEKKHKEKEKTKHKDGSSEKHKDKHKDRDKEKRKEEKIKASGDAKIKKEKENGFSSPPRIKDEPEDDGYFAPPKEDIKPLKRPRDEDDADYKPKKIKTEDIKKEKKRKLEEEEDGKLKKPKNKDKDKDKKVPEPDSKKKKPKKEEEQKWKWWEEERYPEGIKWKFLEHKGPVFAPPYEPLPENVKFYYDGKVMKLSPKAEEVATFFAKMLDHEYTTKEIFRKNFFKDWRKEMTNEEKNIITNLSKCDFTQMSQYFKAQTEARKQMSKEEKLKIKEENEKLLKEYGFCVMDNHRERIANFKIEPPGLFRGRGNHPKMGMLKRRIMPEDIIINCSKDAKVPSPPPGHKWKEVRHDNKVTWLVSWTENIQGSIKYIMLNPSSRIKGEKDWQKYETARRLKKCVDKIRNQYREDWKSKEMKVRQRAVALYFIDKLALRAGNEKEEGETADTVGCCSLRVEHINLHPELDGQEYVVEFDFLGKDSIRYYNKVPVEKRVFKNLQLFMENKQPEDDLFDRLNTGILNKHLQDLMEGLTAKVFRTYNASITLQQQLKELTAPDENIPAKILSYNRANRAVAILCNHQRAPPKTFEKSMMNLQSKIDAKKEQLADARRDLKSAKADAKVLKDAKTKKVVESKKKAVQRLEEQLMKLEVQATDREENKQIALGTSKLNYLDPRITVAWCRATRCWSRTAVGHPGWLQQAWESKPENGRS
Method: The effect of the tested compounds on Topo I and II activities were evaluated by Topo I/II relaxation assays. The reaction products, relaxed DNA could be distinguished from supercoiled DNA by gel electrophoresis and visualized using gel imaging system. The activity of DNA topoisomerase I (TaKaRa, Kyoto, Japan) was determined by measuring the relaxation of supercoiled DNA pBR322 [32]. Camptothecin was used as a positive control. The reaction mixture was prepared according to the manufacture's protocol, and incubated at 37 °C for 30 min. The reactions were terminated by adding dye solution containing 1% SDS, 0.02% bromophenol blue and 50% glycerol. The mixtures were applied to 1% agarose gel and subjected to electrophoresis for 1 h, in 1× TAE buffer (40 mM Tris-acetate, 1 mM EDTA). Gels were stained for 30 min in 60 mL 1× TAE buffer with ethidium bromide (0.5 μg/mL). DNA bands were visualized by transillumination with UV light and then photographed by a Gel Doc XR+ System (BIO-RAD, Hercules, CA, USA).

LO2 cells = assay: MTT cytotoxicity assay, normal hepatocyte LO2; type: cell-based; conditions: Homo sapiens, L02, 48 h exposure, normal hepatocyte cell line
Method: as §1

T1 sequence (P11388 whole entry): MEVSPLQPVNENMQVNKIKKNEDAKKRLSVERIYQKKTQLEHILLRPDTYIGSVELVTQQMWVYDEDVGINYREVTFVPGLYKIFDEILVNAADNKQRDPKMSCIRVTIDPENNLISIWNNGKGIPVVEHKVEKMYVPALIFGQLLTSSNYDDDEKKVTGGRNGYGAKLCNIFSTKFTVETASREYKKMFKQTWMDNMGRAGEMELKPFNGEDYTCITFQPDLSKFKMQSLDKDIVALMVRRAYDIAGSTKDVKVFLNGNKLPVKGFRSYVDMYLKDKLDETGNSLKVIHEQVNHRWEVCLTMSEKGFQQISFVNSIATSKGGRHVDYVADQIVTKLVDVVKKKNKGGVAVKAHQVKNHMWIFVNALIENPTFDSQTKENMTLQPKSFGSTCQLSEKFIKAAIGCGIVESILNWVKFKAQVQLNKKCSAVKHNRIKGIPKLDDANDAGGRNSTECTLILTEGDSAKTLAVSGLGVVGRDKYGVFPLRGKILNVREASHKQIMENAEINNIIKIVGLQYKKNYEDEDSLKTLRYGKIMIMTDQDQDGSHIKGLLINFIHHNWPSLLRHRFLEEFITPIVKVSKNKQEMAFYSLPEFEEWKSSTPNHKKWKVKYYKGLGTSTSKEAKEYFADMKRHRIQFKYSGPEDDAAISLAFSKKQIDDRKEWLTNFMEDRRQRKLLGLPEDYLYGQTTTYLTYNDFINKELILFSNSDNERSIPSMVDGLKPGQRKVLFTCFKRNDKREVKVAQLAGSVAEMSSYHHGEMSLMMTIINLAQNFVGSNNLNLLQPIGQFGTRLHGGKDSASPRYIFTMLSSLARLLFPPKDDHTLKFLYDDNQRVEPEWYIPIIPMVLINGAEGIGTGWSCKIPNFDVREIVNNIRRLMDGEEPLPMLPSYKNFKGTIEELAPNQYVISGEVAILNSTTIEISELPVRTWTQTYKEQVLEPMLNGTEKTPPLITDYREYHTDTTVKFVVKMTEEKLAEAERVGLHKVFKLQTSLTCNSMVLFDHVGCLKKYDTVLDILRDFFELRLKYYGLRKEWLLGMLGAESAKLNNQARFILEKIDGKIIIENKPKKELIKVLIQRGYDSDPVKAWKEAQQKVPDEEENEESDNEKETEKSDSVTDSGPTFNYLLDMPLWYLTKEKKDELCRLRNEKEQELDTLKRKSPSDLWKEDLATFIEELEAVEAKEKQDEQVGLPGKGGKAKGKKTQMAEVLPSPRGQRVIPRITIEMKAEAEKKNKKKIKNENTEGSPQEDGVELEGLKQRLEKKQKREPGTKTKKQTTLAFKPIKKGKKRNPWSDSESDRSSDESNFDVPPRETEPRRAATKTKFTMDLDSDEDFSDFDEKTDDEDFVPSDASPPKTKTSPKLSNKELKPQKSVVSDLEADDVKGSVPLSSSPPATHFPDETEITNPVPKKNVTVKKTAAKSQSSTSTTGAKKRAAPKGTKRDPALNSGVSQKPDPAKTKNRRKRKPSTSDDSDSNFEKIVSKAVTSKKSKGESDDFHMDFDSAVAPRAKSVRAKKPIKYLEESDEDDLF

Row | SMILES | inhibition at 20 µM (Human Topoisomerase IIα) [%] | inhibition at 100 µM (Human Topoisomerase IIα) [%] | IC50 (HepG2 cells; Homo sapiens, HepG2, 48 h) [µM] | IC50 (SMMC-7721 cells; Homo sapiens, SMMC-7721, 48 h) [µM] | inhibition at 20 µM (DNA topoisomerase I) [%] | inhibition at 100 µM (DNA topoisomerase I) [%] | melting point [°C] | IC50 (LO2 cells) [µM] | IC50 (HepG2 cells) [µM] | IC50 (SMMC-7721 cells) [µM]
1 | Cc1ccc2[nH]c3c(c2c1)C[C@@]1(C)C(CC[C@]2(C)C1CC=C1C4[C@@H](C)[C@H](C)CC[C@]4(C(=O)NCCN)CC[C@]12C)C3(C)C (some centres unmarked) [4a, N-(2-Aminoethyl)-5′-methyl-1′H-ursa-2,12-dieno[3,2-b]indol-28-carboxamide] | 25.9 | 69.7 | 3.31 ± 0.35 | 3.5 ± 0.61 | 5.6 | 15.1 | 228 to 230 | 29.6 ± 2.12 |  | 
2 | Cc1ccc2[nH]c3c(c2c1)C[C@@]1(C)C(CC[C@]2(C)C1CC=C1C4[C@@H](C)[C@H](C)CC[C@]4(C(=O)NCCN(C)C)CC[C@]12C)C3(C)C (some centres unmarked) [4b, N-(2-(Dimethylamino)ethyl)-5′-methyl-1′H-ursa-2,12-dieno[3,2-b]indol-28-carboxamide] | 36.9 | 68 | 4.11 ± 0.55 | 4.42 ± 0.71 |  | 3.7 | 166 to 168 | 31.1 ± 2.63 |  | 
3 | CCN(CC)CCNC(=O)[C@]12CC[C@@H](C)[C@H](C)C1C1=CCC3[C@@]4(C)Cc5c([nH]c6ccc(C)cc56)C(C)(C)C4CC[C@@]3(C)[C@]1(C)CC2 (some centres unmarked) [4c, N-(2-(Diethylamino)ethyl)-5′-methyl-1′H-ursa-2,12-dieno[3,2-b]indol-28-carboxamide] | 38.3 | 68.7 | 2.24 ± 0.32 | 2.1 ± 0.21 |  | 0 |  | 26.4 ± 1.32 |  | 
4 | Cc1ccc2[nH]c3c(c2c1)C[C@@]1(C)C(CC[C@]2(C)C1CC=C1C4[C@@H](C)[C@H](C)CC[C@]4(C(=O)NCCN4CCCCC4)CC[C@]12C)C3(C)C (some centres unmarked) [4d, N-(2-(Piperidin-1-yl)ethyl)-5′-methyl-1′H-ursa-2,12-dieno[3,2-b]indol-28-carboxamide] | 32.7 | 71.7 | ~1 | ~1 | 0 | 13 | 195 to 197 | 16 ± 1.07 | 1.47 ± 0.12 | 1.75 ± 0.11
5 | Cc1ccc2[nH]c3c(c2c1)C[C@@]1(C)C(CC[C@]2(C)C1CC=C1C4[C@@H](C)[C@H](C)CC[C@]4(C(=O)NCCN4CCOCC4)CC[C@]12C)C3(C)C (some centres unmarked) [4e, N-(2-Morpholinoethyl)-5′-methyl-1′H-ursa-2,12-dieno[3,2-b]indol-28-carboxamide] | 26.8 | 63.3 | 10.7 ± 2.09 | 7.82 ± 0.78 |  | 0 | 104 to 105 | > 50 |  | 
6 | Cc1ccc2[nH]c3c(c2c1)C[C@@]1(C)C(CC[C@]2(C)C1CC=C1C4[C@@H](C)[C@H](C)CC[C@]4(C(=O)NCCN4CCN(C)CC4)CC[C@]12C)C3(C)C (some centres unmarked) [4f, N-(2-(4-Methylpiperazin-1-yl)ethyl)-5′-methyl-1′H-ursa-2,12-dieno[3,2-b]indol-28-carboxamide] | 31.3 | 73.7 | ~1 | ~1 |  | 0 | 188 to 190 | 18.3 ± 0.78 | 1.35 ± 0.17 | 1.24 ± 0.16
